ChEMBL document CHEMBL2150866, “Irreversible 4-Aminopiperidine Transglutaminase 2 Inhibitors for Huntington's Disease” (ACS Med Chem Lett, 2012)

Assays:
[1] = Half life in human plasma at 1 uM; type: ADME, cell-free
[2] = target: T1, Protein-glutamine gamma-glutamyltransferase (Homo sapiens, UniProt P21980); test: Inhibition of human TGM2
T1 sequence (P21980 whole entry): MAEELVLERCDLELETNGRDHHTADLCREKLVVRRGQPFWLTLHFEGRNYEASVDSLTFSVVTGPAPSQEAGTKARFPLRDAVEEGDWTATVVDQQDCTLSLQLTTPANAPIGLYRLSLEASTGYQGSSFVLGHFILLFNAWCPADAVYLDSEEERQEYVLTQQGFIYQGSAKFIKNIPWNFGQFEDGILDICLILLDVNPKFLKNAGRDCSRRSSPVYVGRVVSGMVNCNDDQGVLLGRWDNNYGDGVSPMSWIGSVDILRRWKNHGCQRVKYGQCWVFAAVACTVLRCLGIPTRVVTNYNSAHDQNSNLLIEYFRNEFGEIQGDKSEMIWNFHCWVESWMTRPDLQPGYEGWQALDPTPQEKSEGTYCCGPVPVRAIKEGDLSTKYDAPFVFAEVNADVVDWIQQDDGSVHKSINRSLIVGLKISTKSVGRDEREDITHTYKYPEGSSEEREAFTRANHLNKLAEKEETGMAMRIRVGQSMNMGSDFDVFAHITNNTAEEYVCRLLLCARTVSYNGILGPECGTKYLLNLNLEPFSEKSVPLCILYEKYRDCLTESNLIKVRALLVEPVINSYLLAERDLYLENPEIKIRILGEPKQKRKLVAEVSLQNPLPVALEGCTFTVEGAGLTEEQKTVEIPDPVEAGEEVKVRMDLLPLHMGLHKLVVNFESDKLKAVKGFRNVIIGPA

[3] = Half life in mouse plasma at 1 uM; type: ADME, cell-free
[4] = Chemical stability of the compound in phosphate buffer at pH 7.4 assessed as GSH adduct formation after 120 hrs; type: physicochemical; conditions: pH 7.4, 120 h

Row | SMILES | half-life at 1 µM [1] [h] | IC50 [2] [µM] | half-life at 1 µM [3] [h] | Stability [4]
1 | C=CC(=O)NC1CCN(S(=O)(=O)c2ccc(C(=O)NCCc3ccc4cccnc4c3)cc2)CC1 | > 6 | 0.31 | > 6 | 
2 | C=CC(=O)NC1CCN(S(=O)(=O)c2ccc(C(=O)NCCc3ccc(-c4ccccc4)cc3)cc2)CC1 | > 6 | 57 | > 6 | 
3 | C=CC(=O)NC1CCN(S(=O)(=O)c2ccc(C(=O)NC3Cc4ccccc4C3)cc2)CC1 | > 6 | 0.2 | > 6 | 
4 | C=CC(=O)NC1CCN(S(=O)(=O)c2ccc(C(=O)N(C)CCc3ccccc3)cc2)CC1 | > 6 | 0.46 | > 6 | 
5 | C=CC(=O)N[C@@H]1CCCN(S(=O)(=O)c2ccc(NC(=O)OCc3ccccc3)cc2)C1 | > 6 | > 80 | > 6 | 
6 | C=CC(=O)NC1CCN(S(=O)(=O)c2ccc(C(=O)NCCC34CC5CC(CC(C5)C3)C4)cc2)CC1 | > 6 | 0.66 | > 6 | 
7 | C=CC(=O)NC1CCN(S(=O)(=O)c2ccc(C(=O)NCCN3CCOCC3)cc2)CC1 | > 6 | 0.38 | > 6 | 
8 | C=CC(=O)NC1CCN(S(=O)(=O)c2ccc(C(=O)NCCc3ccccc3OC)cc2)CC1 | > 6 | 0.23 | > 6 | 
9 | C=CC(=O)NC1CCN(S(=O)(=O)c2ccc(C(=O)NCCc3ccc4ccccc4c3)cc2)CC1 | > 6 | 0.28 | > 6 | 
10 | C=CC(=O)NC1CCN(S(=O)(=O)c2ccc(C(=O)NCCc3ccc(Cl)cc3)cc2)CC1 | > 6 | 0.28 | > 6 | 
11 | C=CC(=O)N1CCN(S(=O)(=O)c2ccc(NC(=O)OCc3ccccc3)cc2)CC1 | > 6 |  | > 6 | 
12 | C=CC(=O)NC1CCN(S(=O)(=O)c2ccc(C(=O)NCCc3ccc(C(F)(F)F)cc3)cc2)CC1 | > 6 | 0.55 | > 6 | 
13 | C=CC(=O)N[C@H]1CCCN(S(=O)(=O)c2ccc(NC(=O)OCc3ccccc3)cc2)C1 | > 6 | > 80 | > 6 | 
14 | C=CC(=O)NCCN(C)S(=O)(=O)c1ccc(NC(=O)OCc2ccccc2)cc1 | > 6 | 3.3 | > 6 | 
15 | C=CC(=O)N[C@@H]1CCN(S(=O)(=O)c2ccc(NC(=O)OCc3ccccc3)cc2)C1 | > 6 | 30 | > 6 | 
16 | C=CC(=O)NCC1CCN(S(=O)(=O)c2ccc(NC(=O)OCc3ccccc3)cc2)CC1 | > 6 | 5.1 | > 6 | 
17 | C=CC(=O)NC1CCN(S(=O)(=O)c2ccc(C(=O)NCCC3CCOCC3)cc2)CC1 | > 6 | 0.36 | > 6 | 
18 | C=CC(=O)NC1CCN(S(=O)(=O)c2ccc(C(=O)NCCc3ccc(C)c(C)c3)cc2)CC1 | > 6 | 0.18 | > 6 | 

Row | SMILES | half-life at 1 µM [1] [h] | IC50 [2] [µM] | half-life at 1 µM [3] [h] | Stability [4]
19 | C=CC(=O)NC1CCN(S(=O)(=O)c2ccc(C(=O)NCCc3cccc4c3OCO4)cc2)CC1 | > 6 | 0.28 | > 6 | 
20 | C=CC(=O)NC1CCN(S(=O)(=O)c2ccc(C(=O)NCc3ccccc3)cc2)CC1 | > 6 | 0.2 | > 6 | 
21 | C=CC(=O)NC1CCN(S(=O)(=O)c2ccc(C(=O)NCCCc3ccccc3)cc2)CC1 | > 6 | 0.77 | > 6 | 
22 | C=CC(=O)NC1CCN(S(=O)(=O)c2ccc(C(=O)N[C@@H]3C[C@H]3c3ccccc3)cc2)CC1 (racemic) | > 6 | 0.41 | > 6 | 
23 | C=CC(=O)NC1CCN(S(=O)(=O)c2ccc(C(=O)N3CCc4ccccc4C3)cc2)CC1 | > 6 | 0.62 | > 6 | 
24 | C=CC(=O)NC1CCN(S(=O)(=O)c2ccc(C(=O)NCCc3ccc(OC)c(OC)c3)cc2)CC1 | > 6 | 0.46 | > 6 | 
25 | C=CC(=O)NC1CCN(S(=O)(=O)c2ccc(C(=O)NCCc3cccc4c3OCC4)cc2)CC1 | > 6 | 0.26 | > 6 | 
26 | C=CC(=O)NC1CCN(S(=O)(=O)c2ccc(C(=O)NCCc3cccc(Cl)c3)cc2)CC1 | > 6 | 0.17 | > 6 | Stable
27 | C=CC(=O)N[C@H]1CCN(S(=O)(=O)c2ccc(NC(=O)OCc3ccccc3)cc2)C1 | > 6 | 55 | > 6 | 
28 | C=CC(=O)NC1CCN(S(=O)(=O)c2ccc(C(=O)NCCc3ccc(C(C)(C)C)cc3)cc2)CC1 | > 6 | 22 | > 6 | 
29 | C=CC(=O)NC1CCN(S(=O)(=O)c2ccc(C(=O)NCc3cccc4ccccc34)cc2)CC1 | > 6 | 0.17 | > 6 | 
30 | C=CC(=O)NC1CN(S(=O)(=O)c2ccc(NC(=O)OCc3ccccc3)cc2)C1 | > 6 | 1.6 | > 6 | 
31 | C=CC(=O)NC1CCN(Cc2ccc(NC(=O)OCc3ccccc3)cc2)CC1 | > 6 | 1.6 | > 6 | 
32 | C=CC(=O)NC1CCN(S(=O)(=O)c2ccc(C(=O)N(C)Cc3ccccc3)cc2)CC1 | > 6 | 0.63 | > 6 | 
33 | Nc1ccc(S(=O)(=O)N2CCN(C(=O)C3CC3)CC2)cc1 | > 6 | > 80 | > 24 | 
34 | C=CC(=O)NC1CCN(S(=O)(=O)c2ccc(C(=O)NCCC3CCCCC3)cc2)CC1 | > 6 | 0.14 | > 6 | 
35 | C=CC(=O)NC1CCN(S(=O)(=O)c2ccc(C(=O)NC3CCCc4ccccc43)cc2)CC1 (stereo not drawn) | > 6 | 0.32 | > 6 | 
36 | C=CC(=O)NC1CCN(C(=O)c2ccc(NC(=O)OCc3ccccc3)cc2)CC1 | > 6 | 8.9 | > 6 | 
